Assay results from patent US10174067B2, “Type of cytidine derivative and application thereof” (priority 2014, dated 2019).
Marks after values point to notes of the source that are not given here.

Tests used:
ICR mice = test: in vivo; conditions: female ICR mice; single-dose ip
How it was run: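 Female SPF ICR mice received a single ip dose in ethanol/Cremophor EL/saline (5:5:90), with dose lowered after deaths and raised otherwise. MTD defined as dose causing no death, no >10% weight loss versus Day 0 and no significant side effects; daily weights and twice-daily clinical observation over 7-14 days.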

[1] = test system: HCT-116 colon cancer xenografts; test: Tumor growth inhibition of HCT-116 colon cancer xenografts in tumor-bearing nude mice (tumor volume, TGI %, RTV, T/C %); assay type: in vivo, Balb/c Nude mice; conditions: G10-G16 groups, single IP 400 mg/kg
How it was run: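 Nude mice inoculated with HCT-116 cells (about 3×10^7 cells/mL in serum-free medium). Tumor diameter measured three times weekly and volume computed as V=3/4π(D/2)^3. Activity expressed as TGI (%) and T/C (%) from relative tumor volume Vt/V0, with V0 taken at grouping and dosing start; P<0.05 significant.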

[2] = How it was run: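 Female SPF Balb/c nude mice bearing subcutaneous HCT-116 xenografts (3×10^6 cells, right hind limb), grouped at 60–150 mm^3, 6 per group; vehicle ethanol/Cremophor EL/saline 5:5:90. Body weight thrice weekly; tumours excised and weighed at sacrifice; Mean±SEM, unpaired t-test, P<0.05.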
[3] = Day 1, G10-G16 groups, single IP 400 mg/kg, Mean±SEM
[4] = Day 2, G10-G16 groups, single IP 400 mg/kg, Mean±SEM
[5] = Day 4, G10-G16 groups, single IP 400 mg/kg, Mean±SEM
[6] = Day 7, G10-G16 groups, single IP 400 mg/kg, Mean±SEM
[7] = Day 9, G10-G16 groups, single IP 400 mg/kg, Mean±SEM
[8] = Day 11, G10-G16 groups, single IP 400 mg/kg, Mean±SEM
[9] = Day 14, G10-G16 groups, single IP 400 mg/kg, Mean±SEM
[10] = Day 16, G10-G16 groups, single IP 400 mg/kg, Mean±SEM
[11] = Day 18, G10-G16 groups, single IP 400 mg/kg, Mean±SEM
[12] = Day 21, G10-G16 groups, single IP 400 mg/kg, Mean±SEM
[13] = Day 23, G10-G16 groups, single IP 400 mg/kg, Mean±SEM
[14] = Day 25, G10-G16 groups, single IP 400 mg/kg, Mean±SEM
[15] = Day 28, G10-G16 groups, single IP 400 mg/kg, Mean±SEM
[16] = Day 30, G10-G16 groups, single IP 400 mg/kg, Mean±SEM

**Q.** Which “dose that could be tolerated (maximum tolerated dose, MTD)” value (ICR mice) does the source give for `CCCCOC(=O)Nc1nc(=O)n(C2OC(COC(=O)COc3nc(Cl)c(Cl)cc3Cl)C(O)C2(F)F)cc1Br` (stereo not shown) [Compound G16] here?
**A.** The value was 400 mg/kg.

**Q.** What about the “Day 0 (RTV)” value ([1]; Day 0) of the same compound?
**A.** Its value is 1.00.

**Q.** What about the “Tumor volume, Day 0” value ([1]; Day 0, Mean±SEM) of the same compound?
**A.** Its value is 52.57 ± 10.93** mm^3.

**Q.** What about the “Day 1 (TGI %)” value ([1]; Day 1) of the same compound?
**A.** Its value is 63.52%.

**Q.** What about the “Day 1 (RTV)” value ([1]; Day 1, Mean±SEM) of the same compound?
**A.** Its value is 1.25 ± 0.20.

**Q.** And the “Tumor volume, Day 1” value ([1]; Day 1, Mean±SEM)?
**A.** Its value is 65.85 ± 18.30** mm^3.

**Q.** And the “Day 2 (TGI %)” value ([1]; Day 2)?
**A.** Its value is 56.02%.

**Q.** And the “Day 2 (RTV)” value ([1]; Day 2, Mean±SEM)?
**A.** The value was 2.10 ± 0.74.

**Q.** What about the “Tumor volume, Day 2” value ([1]; Day 2, Mean±SEM) of the same compound?
**A.** Its value is 97.57 ± 24.94** mm^3.

**Q.** And the “Day 4 (TGI %)” value ([1]; Day 4)?
**A.** The value was 52.31%.

**Q.** And the “Day 4 (RTV)” value ([1]; Day 4, Mean±SEM)?
**A.** Its value is 3.10 ± 1.46.

**Q.** What about the “Day 7 (TGI %)” value ([1]; Day 7) of the same compound?
**A.** The value was 45.07%.

**Q.** What about the “Day 7 (RTV)” value ([1]; Day 7, Mean±SEM) of the same compound?
**A.** Its value is 5.12 ± 2.41.

**Q.** And the “Tumor volume, Day 7” value ([1]; Day 7, Mean±SEM)?
**A.** The value was 237.57 ± 74.65* mm^3.

**Q.** What about the “Day 9 (TGI %)” value ([1]; Day 9) of the same compound?
**A.** Its value is 33.79%.

**Q.** And the “Day 9 (RTV)” value ([1]; Day 9, Mean±SEM)?
**A.** Its value is 8.09 ± 3.62.

**Q.** What about the “Tumor volume, Day 9” value ([1]; Day 9, Mean±SEM) of the same compound?
**A.** The value was 390.87 ± 115.68 mm^3.

**Q.** And the “Day 11 (TGI %)” value ([1]; Day 11)?
**A.** Its value is 36.38%.

**Q.** What about the “Day 11 (RTV)” value ([1]; Day 11, Mean±SEM) of the same compound?
**A.** The value was 12.66 ± 5.21.

**Q.** And the “Tumor volume, Day 11” value ([1]; Day 11, Mean±SEM)?
**A.** The value was 621.03 ± 173.32 mm^3.

**Q.** What about the “Day 14 (TGI %)” value ([1]; Day 14) of the same compound?
**A.** Its value is 27.91%.

**Q.** And the “Day 14 (RTV)” value ([1]; Day 14, Mean±SEM)?
**A.** Its value is 20.81 ± 7.22.

**Q.** And the “Tumor volume, Day 14” value ([1]; Day 14, Mean±SEM)?
**A.** The value was 1038.23 ± 262.72 mm^3.

**Q.** And the “Day 16 (TGI %)” value ([1]; Day 16)?
**A.** The value was 27.25%.

**Q.** And the “Day 16 (RTV)” value ([1]; Day 16, Mean±SEM)?
**A.** Its value is 26.35 ± 8.64.

**Q.** And the “Tumor volume, Day 16” value ([1]; Day 16, Mean±SEM)?
**A.** Its value is 1317.52 ± 322.74 mm^3.

**Q.** What about the “Day 18 (TGI %)” value ([1]; Day 18) of the same compound?
**A.** Its value is 21.59%.

**Q.** What about the “Day 18 (RTV)” value ([1]; Day 18, Mean±SEM) of the same compound?
**A.** The value was 31.97 ± 10.14.

**Q.** What about the “Tumor volume, Day 18” value ([1]; Day 18, Mean±SEM) of the same compound?
**A.** Its value is 1566.87 ± 378.64 mm^3.

**Q.** What about the “Day 21 (TGI %)” value ([1]; Day 21) of the same compound?
**A.** The value was 23.19%.

**Q.** And the “Day 21 (RTV)” value ([1]; Day 21, Mean±SEM)?
**A.** The value was 38.61 ± 9.84.

**Q.** What about the “Tumor volume, Day 21” value ([1]; Day 21, Mean±SEM) of the same compound?
**A.** Its value is 1877.91 ± 388.81 mm^3.

**Q.** And the “Day 23 (TGI %)” value ([1]; Day 23)?
**A.** Its value is 18.55%.

**Q.** And the “Day 23 (RTV)” value ([1]; Day 23, Mean±SEM)?
**A.** The value was 39.81 ± 9.58.

**Q.** And the “Tumor volume, Day 23” value ([1]; Day 23, Mean±SEM)?
**A.** The value was 1923.55 ± 392.05 mm^3.

**Q.** What about the “Day 25 (TGI %)” value ([1]; Day 25) of the same compound?
**A.** Its value is 18.29%.

**Q.** And the “Day 25 (RTV)” value ([1]; Day 25, Mean±SEM)?
**A.** The value was 43.89 ± 10.29.

**Q.** And the “Tumor volume, Day 25” value ([1]; Day 25, Mean±SEM)?
**A.** Its value is 2110.15 ± 421.51 mm^3.

**Q.** What about the “Day 28 (TGI %)” value ([1]; Day 28) of the same compound?
**A.** The value was 38.94%.

**Q.** And the “Day 28 (RTV)” value ([1]; Day 28, Mean±SEM)?
**A.** Its value is 39.62 ± 10.42.

**Q.** And the “Tumor volume, Day 28” value ([1]; Day 28, Mean±SEM)?
**A.** Its value is 1642.01 ± 659.32 mm^3.

**Q.** And the “Day 30 (TGI %)” value ([1]; Day 30)?
**A.** Its value is 52.84%.

**Q.** What about the “Day 30 (RTV)” value ([1]; Day 30, Mean±SEM) of the same compound?
**A.** The value was 38.70 ± 10.60.

**Q.** What about the “Tumor volume, Day 30” value ([1]; Day 30, Mean±SEM) of the same compound?
**A.** Its value is 1323.36 ± 626.45 mm^3.

**Q.** What about the “Weight change rate, Day 0” value ([2]; Day 0, G10-G16 groups, single IP 400 mg/kg) of the same compound?
**A.** Its value is 0.00%.

**Q.** And the “Weight of mice, Day 0” value ([2]; Day 0, G10-G16 groups, single IP 400 mg/kg, Mean±SEM)?
**A.** Its value is 20.60 ± 0.23 g.

**Q.** And the “Weight change rate, Day 1” value [2, 3]?
**A.** The value was −0.99 ± 0.59%.

**Q.** What about the “Weight of mice, Day 1” value [2, 3] of the same compound?
**A.** Its value is 20.40 ± 0.32 g.

**Q.** And the “Weight change rate, Day 2” value [2, 4]?
**A.** The value was −0.79 ± 0.84%.

**Q.** What about the “Weight of mice, Day 2” value [2, 4] of the same compound?
**A.** Its value is 20.45 ± 0.30 g.

**Q.** What about the “Weight change rate, Day 4” value [2, 5] of the same compound?
**A.** Its value is −0.38 ± 1.13%.

**Q.** What about the “Weight of mice, Day 4” value [2, 5] of the same compound?
**A.** The value was 20.62 ± 0.28 g.

**Q.** What about the “Weight change rate, Day 7” value [2, 6] of the same compound?
**A.** The value was −1.73 ± 0.99 %.

**Q.** What about the “Weight of mice, Day 7” value [2, 6] of the same compound?
**A.** The value was 20.43 ± 0.27 g.

**Q.** And the “Weight change rate, Day 9” value [2, 7]?
**A.** Its value is 1.99 ± 1.71 %.

**Q.** What about the “Weight of mice, Day 9” value [2, 7] of the same compound?
**A.** Its value is 21.03 ± 0.23 g.

**Q.** What about the “Weight change rate, Day 11” value [2, 8] of the same compound?
**A.** The value was 3.60 ± 1.31%.

**Q.** And the “Weight of mice, Day 11” value [2, 8]?
**A.** Its value is 21.32 ± 0.26 g.

**Q.** What about the “Weight change rate, Day 14” value [2, 9] of the same compound?
**A.** The value was 1.54 ± 2.06 %.

**Q.** And the “Weight of mice, Day 14” value [2, 9]?
**A.** The value was 20.87 ± 0.22 g.

**Q.** And the “Weight change rate, Day 16” value [2, 10]?
**A.** Its value is 2.61 ± 2.41%.

**Q.** And the “Weight of mice, Day 16” value [2, 10]?
**A.** Its value is 21.02 ± 0.33 g.

**Q.** And the “Weight change rate, Day 18” value [2, 11]?
**A.** Its value is 6.99 ± 2.87 %.

**Q.** What about the “Weight of mice, Day 18” value [2, 11] of the same compound?
**A.** The value was 21.80 ± 0.44 g.

**Q.** And the “Weight change rate, Day 21” value [2, 12]?
**A.** Its value is 5.42 ± 2.41 %.

**Q.** What about the “Weight of mice, Day 21” value [2, 12] of the same compound?
**A.** The value was 21.55 ± 0.34 g.

**Q.** What about the “Day 22 Mortality” value ([2]; Day 22, single IP dose (mg/kg)) of the same compound?
**A.** The value was 0%.

**Q.** And the “Weight change rate, Day 23” value [2, 13]?
**A.** Its value is 7.14 ± 3.88%.

**Q.** And the “Weight of mice, Day 23” value [2, 13]?
**A.** The value was 21.78 ± 0.58 g.

**Q.** And the “Weight change rate, Day 25” value [2, 14]?
**A.** The value was 7.62 ± 3.76%.

**Q.** What about the “Weight of mice, Day 25” value [2, 14] of the same compound?
**A.** Its value is 21.83 ± 0.59 g.

**Q.** And the “Weight change rate, Day 28” value [2, 15]?
**A.** The value was 3.66 ± 3.27%.

**Q.** What about the “Weight of mice, Day 28” value [2, 15] of the same compound?
**A.** The value was 21.27 ± 0.43 g.

**Q.** And the “Weight change rate, Day 30” value [2, 16]?
**A.** The value was 4.94 ± 2.45%.

**Q.** And the “Weight of mice, Day 30” value [2, 16]?
**A.** Its value is 21.20 ± 0.60 g.

**Q.** And the clinical symptoms ([2]; after single IP dose, compared with model control group)?
**A.** The clinical symptoms was “no significant differences in clinical symptoms”.
